# Test results from PMC10322960 (European Journal of Drug Metabolism and Pharmacokinetics, 2023).
# What was measured:
# Type in all cases: in vitro ADME
# BCRP [1] = target: T1, BCRP (Homo sapiens, UniProt Q9UNQ0); assay: BCRP vesicular transport inhibition assay
# T1 sequence (Q9UNQ0 1-655): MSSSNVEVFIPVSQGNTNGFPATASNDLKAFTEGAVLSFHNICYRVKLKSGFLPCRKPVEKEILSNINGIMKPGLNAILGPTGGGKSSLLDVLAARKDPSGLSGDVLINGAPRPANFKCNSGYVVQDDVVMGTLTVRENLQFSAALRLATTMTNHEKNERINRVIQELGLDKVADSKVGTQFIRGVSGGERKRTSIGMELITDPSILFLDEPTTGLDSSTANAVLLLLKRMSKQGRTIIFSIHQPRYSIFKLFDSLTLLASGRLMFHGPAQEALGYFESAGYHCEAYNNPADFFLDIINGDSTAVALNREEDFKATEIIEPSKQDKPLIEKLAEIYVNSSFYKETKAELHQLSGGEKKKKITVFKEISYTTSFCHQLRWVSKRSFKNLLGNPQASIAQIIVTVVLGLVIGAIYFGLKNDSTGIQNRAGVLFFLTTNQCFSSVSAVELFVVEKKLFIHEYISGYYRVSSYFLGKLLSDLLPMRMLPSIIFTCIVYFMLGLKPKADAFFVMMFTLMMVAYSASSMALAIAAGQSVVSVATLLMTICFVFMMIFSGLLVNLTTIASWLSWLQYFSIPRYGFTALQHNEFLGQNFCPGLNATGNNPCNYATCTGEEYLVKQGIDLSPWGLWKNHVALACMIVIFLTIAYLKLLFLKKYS
# OAT3 = target: T2, OAT3 (Homo sapiens, UniProt Q8TCC7); assay: OAT3 uptake substrate assay
# T2 sequence (Q8TCC7 1-542): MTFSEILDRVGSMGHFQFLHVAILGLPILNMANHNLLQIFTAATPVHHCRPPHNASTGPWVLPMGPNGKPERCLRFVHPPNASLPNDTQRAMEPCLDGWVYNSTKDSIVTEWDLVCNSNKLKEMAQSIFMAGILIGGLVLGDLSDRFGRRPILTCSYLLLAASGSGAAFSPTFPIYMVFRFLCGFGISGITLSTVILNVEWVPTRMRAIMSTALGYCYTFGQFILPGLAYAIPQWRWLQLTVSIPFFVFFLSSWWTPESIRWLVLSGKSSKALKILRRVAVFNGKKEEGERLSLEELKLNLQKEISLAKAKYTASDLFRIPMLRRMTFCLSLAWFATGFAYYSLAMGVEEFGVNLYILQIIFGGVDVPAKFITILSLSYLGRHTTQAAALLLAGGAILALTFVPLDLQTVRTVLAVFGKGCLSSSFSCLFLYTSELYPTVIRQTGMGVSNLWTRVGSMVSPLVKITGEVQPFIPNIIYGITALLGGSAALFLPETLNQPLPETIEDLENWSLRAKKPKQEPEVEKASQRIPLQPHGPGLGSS
# CYP2C8 = target: T3, CYP2C8 (Homo sapiens, UniProt P10632); assay: In vitro P450 inhibition, recombinant CYP2C8
# T3 sequence (P10632 1-490): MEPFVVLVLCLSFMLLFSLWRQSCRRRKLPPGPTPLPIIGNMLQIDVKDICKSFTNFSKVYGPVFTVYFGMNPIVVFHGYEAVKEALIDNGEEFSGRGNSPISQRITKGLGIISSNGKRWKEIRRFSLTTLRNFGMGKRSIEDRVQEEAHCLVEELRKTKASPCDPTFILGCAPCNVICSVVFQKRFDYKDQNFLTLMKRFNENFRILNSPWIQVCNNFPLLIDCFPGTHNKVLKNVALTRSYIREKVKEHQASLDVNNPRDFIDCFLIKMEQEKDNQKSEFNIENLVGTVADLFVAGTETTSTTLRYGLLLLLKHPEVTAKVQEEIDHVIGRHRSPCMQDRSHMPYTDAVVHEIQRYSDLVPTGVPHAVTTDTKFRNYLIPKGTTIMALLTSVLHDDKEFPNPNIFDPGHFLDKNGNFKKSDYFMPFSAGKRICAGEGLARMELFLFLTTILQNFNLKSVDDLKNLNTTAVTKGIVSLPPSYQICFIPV
# MATE1 = target: T4, MATE1 (Homo sapiens, UniProt Q96FL8); assay: MATE1 uptake substrate assay
# T4 sequence (Q96FL8 1-570): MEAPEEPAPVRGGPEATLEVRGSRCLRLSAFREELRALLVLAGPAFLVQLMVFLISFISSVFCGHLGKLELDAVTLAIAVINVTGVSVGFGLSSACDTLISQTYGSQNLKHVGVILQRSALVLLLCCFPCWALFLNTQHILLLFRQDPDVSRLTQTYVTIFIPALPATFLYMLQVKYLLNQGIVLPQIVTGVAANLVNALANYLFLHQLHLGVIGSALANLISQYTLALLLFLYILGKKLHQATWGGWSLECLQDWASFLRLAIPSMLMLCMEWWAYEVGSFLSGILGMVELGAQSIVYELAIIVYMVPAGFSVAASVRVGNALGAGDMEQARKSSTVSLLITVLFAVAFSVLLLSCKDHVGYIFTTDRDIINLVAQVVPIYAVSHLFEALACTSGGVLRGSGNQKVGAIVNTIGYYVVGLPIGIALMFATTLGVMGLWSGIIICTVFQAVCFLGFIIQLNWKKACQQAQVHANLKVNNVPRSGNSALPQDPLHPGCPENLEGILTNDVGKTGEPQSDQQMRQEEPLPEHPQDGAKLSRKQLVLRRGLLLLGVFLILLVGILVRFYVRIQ
# BCRP [2] = target: T1, BCRP; assay: BCRP monolayer substrate assay
# [3] = transporter-expressing vs control cells, 0.04–40 µm
structure (smiles),measurement,setting,value
"N#Cc1ccc(N2N=C3c4ccc(C(=O)N5CCC(O)CC5)nc4CC[C@@H]3[C@@H]2C2CCCC2)cc1Cl [Ocedurenone, ocedurenone]",inhibition of BCRP at 40 µM,"BCRP [1]; first vesicular transport run, 40 µM",98%
same,maximum inhibition of BCRP-mediated transport,"BCRP [1]; repeat with 7 concentrations, at 40 µm",98%
same,"Substrate, OAT3 UPT",OAT3,not likely to be a substrate
same,"Maximum fold accumulation, OAT3 UPT",OAT3; [3],< 2
same,percentage remaining activity of CYP2C8,CYP2C8; ocedurenone at 200 μM,26.4%
same,IC50,"CYP2C8; read-out: IC50 CYP2C8, recombinant CYP, results section",> 10 µM
same,inhibition category CYP2C8,CYP2C8; recombinant enzyme,weak inhibition (IC50 >10 μM categorized as weak inhibition)
same,"Substrate, MATE1 UPT",MATE1,not likely to be a substrate
same,"Maximum fold accumulation, MATE1 UPT",MATE1; [3],1.0
same,"Substrate, BCRP ML",BCRP [2],likely a substrate
